According to patent US9321756B2, “Azole compounds as PIM inhibitors” (priority 2011, dated 2016):
pIC50: −log10 of the molar value. Where two headings read alike, the source gives them in different places.

Experiments:
[1] = molecular target: full length recombinant Pim-2 (Homo sapiens (Human), UniProt Q9P1W9); assay: Pim enzyme assay (HTRF, phosphorylation of biotinylated-BAD (S112) peptide), Pim-2; format: biochemical; conditions: read-out: Pim2_IC50
[2] = molecular target: full length recombinant Pim-1 (Homo sapiens (Human), UniProt P11309); assay: Pim enzyme assay (HTRF, phosphorylation of biotinylated-BAD (S112) peptide), Pim-1; format: biochemical
[3] = Pim-1 enzyme assay, read-out: Pim_1_IC50
[4] = HTRF, 10-point curve, high dose 1 uM, 2 h at RT, read-out: Pim_1_IC50

Sequence of full length recombinant Pim-1 (P11309 whole entry): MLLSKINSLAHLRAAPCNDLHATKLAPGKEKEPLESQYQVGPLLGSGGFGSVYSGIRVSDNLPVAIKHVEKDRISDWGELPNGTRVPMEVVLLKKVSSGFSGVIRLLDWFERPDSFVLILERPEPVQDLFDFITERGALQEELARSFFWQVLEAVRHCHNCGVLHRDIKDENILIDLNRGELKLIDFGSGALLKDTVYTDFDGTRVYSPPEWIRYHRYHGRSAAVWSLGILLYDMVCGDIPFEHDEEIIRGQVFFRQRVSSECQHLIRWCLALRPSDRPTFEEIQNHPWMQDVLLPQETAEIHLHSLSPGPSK
Sequence of full length recombinant Pim-2 (Q9P1W9 whole entry): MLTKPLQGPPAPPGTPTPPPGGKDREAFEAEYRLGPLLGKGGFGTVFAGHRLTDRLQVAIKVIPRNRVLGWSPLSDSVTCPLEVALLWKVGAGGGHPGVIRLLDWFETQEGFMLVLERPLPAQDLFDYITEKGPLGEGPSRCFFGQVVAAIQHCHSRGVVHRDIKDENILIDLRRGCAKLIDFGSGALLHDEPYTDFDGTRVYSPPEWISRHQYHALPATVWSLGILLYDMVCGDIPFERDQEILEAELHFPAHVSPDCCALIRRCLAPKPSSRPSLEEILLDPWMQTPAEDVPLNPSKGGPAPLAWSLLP

| Structure (SMILES) | pIC50 ([1]; Pim-2 enzyme assay) | pIC50 [2, 3] | pIC50 [1] | pIC50 [2] | pIC50 [2, 4] |
| --- | --- | --- | --- | --- | --- |
| Nc1nnc(-c2ccc3[nH]cc(-c4ccccc4F)c3n2)o1 [Example 9, 5-(3-(2-fluorophenyl)-1H-pyrrolo[3,2-b]pyridin-5-yl)-1,3,4-oxadiazol-2-amine] | 6.14 | 6.19 |  |  |  |
| c1ccc(Nc2nnc(-c3ccc4[nH]cc(-c5cncc(C6CC6)n5)c4c3)o2)cc1 [Example 40, 5-(3-(6-Cyclopropylpyrazin-2-yl)-1H-indol-5-yl)-N-phenyl-1,3,4-oxadiazol-2-amine] | 6.67 | 6.98 |  |  |  |
| CC(C)c1ccnc(-c2c[nH]c3ccc(-c4nnc(NCC#N)o4)cc23)n1 [Example 45, 2-((5-(3-(4-isopropylpyrimidin-2-yl)-1H-indol-5-yl)-1,3,4-oxadiazol-2-yl)amino)acetonitrile] | 8.55 | 8.42 |  |  |  |
| CC(C)Nc1nnc(-c2ccc3[nH]cc(-c4nc(C(=O)O)cc(C5CC5)n4)c3c2)o1 [Example 47, 6-cyclopropyl-2-(5-(5-(isopropylamino)-1,3,4-oxadiazol-2-yl)-1H-indol-3-yl)pyrimidine-4-carboxylic acid] | 8.94 | 7.70 |  |  |  |
| CC(C)Nc1nnc(-c2ccc3[nH]cc(-c4nc(C(N)=O)cc(C5CC5)n4)c3c2)o1 [Example 48, 6-cyclopropyl-2-(5-(5-(isopropylamino)-1,3,4-oxadiazol-2-yl)-1H-indol-3-yl)pyrimidine-4-carboxamide] |  | 8.60 |  |  |  |
| CC(C)Cc1nnc(-c2ccc3[nH]cc(-c4nccc(C5CC5)n4)c3c2)o1 [Example 51, 2-(3-(4-cyclopropylpyrimidin-2-yl)-1H-indol-5-yl)-5-isobutyl-1,3,4-oxadiazole] | 7.51 | 7.03 |  |  |  |
| CC(C)(C)Nc1nnc(-c2ccc3[nH]cc(-c4nccc(C5CC5)n4)c3c2)o1 [Example 54, N-tert-butyl-5-(3-(4-cyclopropylpyrimidin-2-yl)-1H-indol-5-yl)-1,3,4-oxadiazol-2-amine 2,2,2-trifluoroacetate] |  | 8.80 | 8.62 |  |  |
| COc1nc(-c2c[nH]c3ccc(-c4nnc(NC(C)(C)C)o4)cc23)ncc1F [Example 55, N-tert-butyl-5-(3-(5-fluoro-4-methoxypyrimidin-2-yl)-1H-indol-5-yl)-1,3,4-oxadiazol-2-amine 2,2,2-trifluoroacetate] | 7.54 |  |  | 8.06 |  |
| CC(C)(C)Nc1nnc(-c2ccc3[nH]cc(-c4ncc(F)c(C5CC5)n4)c3c2)o1 [Example 56, N-tert-butyl-5-(3-(4-cyclopropyl-5-fluoropyrimidin-2-yl)-1H-indol-5-yl)-1,3,4-oxadiazol-2-amine] |  | 8.60 |  |  |  |
| CCc1nc(-c2c[nH]c3ccc(-c4nnc(NC(C)(C)C)o4)cc23)ncc1F [Example 57, N-tert-butyl-5-(3-(4-ethyl-5-fluoropyrimidin-2-yl)-1H-indol-5-yl)-1,3,4-oxadiazol-2-amine] | 7.68 | 8.24 |  |  |  |
| COc1ccnc(-c2c[nH]c3ccc(-c4nnc(NC(C)C)o4)cc23)n1 [Example 59, N-isopropyl-5-(3-(4-methoxypyrimidin-2-yl)-1H-indol-5-yl)-1,3,4-oxadiazol-2-amine] | 7.78 | 7.52 |  |  |  |
| CC(C)Nc1nnc(-c2ccc3[nH]cc(-c4nccc(OC(C)C)n4)c3c2)o1 [Example 60, 5-(3-(4-isopropoxypyrimidin-2-yl)-1H-indol-5-yl)-N-isopropyl-1,3,4-oxadiazol-2-amine] | 7.87 | 7.70 |  |  |  |
| CC(C)Nc1nnc(-c2ccc3[nH]cc(-c4nccc(N5CCN(C)C(=O)C5)n4)c3c2)o1 [Example 61, 4-(2-(5-(5-(isopropylamino)-1,3,4-oxadiazol-2-yl)-1H-indol-3-yl)pyrimidin-4-yl)-1-methylpiperazin-2-one] | 7.33 | 7.34 |  |  |  |
| CC(C)Nc1nnc(-c2ccc3[nH]cc(-c4nccc(OC5CCCN(C)C5)n4)c3c2)o1 (stereo not drawn) [Example 62, N-isopropyl-5-(3-(4-((1-methylpiperidin-3-yl)oxy)pyrimidin-2-yl)-1H-indol-5-yl)-1,3,4-oxadiazol-2-amine 2,2,2-trifluoroacetate] |  | 7.16 | 6.69 |  |  |
| CC(C)Oc1cccc(-c2c[nH]c3ccc(-c4nc(N)ns4)cc23)n1 [Example 63, 5-(3-(6-isopropoxypyridin-2-yl)-1H-indol-5-yl)-1,2,4-thiadiazol-3-amine] | 6.40 | 6.26 |  |  |  |
| CC(C)Oc1cccc(-c2c[nH]c3ccc(-c4nsc(N)n4)cc23)n1 [Example 65, 3-(3-(6-isopropoxypyridin-2-yl)-1H-indol-5-yl)-1,2,4-thiadiazol-5-amine] |  | 6.47 |  |  |  |
| CC(C)Nc1cncc(-c2c[nH]c3ccc(-c4nsc(N)n4)cc23)n1 [Example 66, 3-(3-(6-(isopropylamino)pyrazin-2-yl)-1H-indol-5-yl)-1,2,4-thiadiazol-5-amine] | 6.19 | 7.70 |  |  |  |
| CC(C)Nc1cncc(-c2c[nH]c3ccc(-c4nc(N)no4)cc23)n1 [Example 67, 5-(3-(6-(isopropylamino)pyrazin-2-yl)-1H-indol-5-yl)-1,2,4-oxadiazol-3-amine] |  | 8.24 | 7.23 |  |  |

| Structure (SMILES) | pIC50 ([1]; Pim-2 enzyme assay) | pIC50 [2, 3] | pIC50 [1] | pIC50 [2] | pIC50 [2, 4] |
| --- | --- | --- | --- | --- | --- |
| CC(C)Oc1cccc(-c2c[nH]c3ccc(-c4nc(N)no4)cc23)n1 [Example 68, 5-(3-(6-isopropoxypyridin-2-yl)-1H-indol-5-yl)-1,2,4-oxadiazol-3-amine] |  | 7.37 | 7.10 |  |  |
| CC(C)Oc1cccc(-c2c[nH]c3ccc(-c4noc(N)n4)cc23)n1 [Example 69, 3-(3-(6-isopropoxypyridin-2-yl)-1H-indol-5-yl)-1,2,4-oxadiazol-5-amine] | 6.18 | 6.62 |  |  |  |
| CC(C)Nc1cncc(-c2c[nH]c3ccc(-c4noc(N)n4)cc23)n1 [Example 70, 3-(3-(6-(isopropylamino)pyrazin-2-yl)-1H-indol-5-yl)-1,2,4-oxadiazol-5-amine] | 6.44 | 7.52 |  |  |  |
| CC(C)Oc1cncc(-c2c[nH]c3ccc(-c4noc(N)n4)cc23)n1 [Example 71, 3-(3-(6-isopropoxypyrazin-2-yl)-1H-indol-5-yl)-1,2,4-oxadiazol-5-amine] | 6.27 | 7.16 |  |  |  |
| CNc1nc(-c2ccc3[nH]cc(-c4cncc(OC(C)C)n4)c3c2)no1 [Example 72, 3-(3-(6-isopropoxypyrazin-2-yl)-1H-indol-5-yl)-N-methyl-1,2,4-oxadiazol-5-amine] |  | 7.16 |  |  |  |
| CC(C)Nc1nc(-c2ccc3[nH]cc(-c4cncc(OC(C)C)n4)c3c2)no1 [Example 73, 3-(3-(6-isopropoxypyrazin-2-yl)-1H-indol-5-yl)-N-isopropyl-1,2,4-oxadiazol-5-amine] |  | 7.34 | 6.30 |  |  |
| CC(=O)Nc1nc(-c2ccc3[nH]cc(-c4cncc(OC(C)C)n4)c3c2)no1 [Example 74, N-(3-(3-(6-isopropoxypyrazin-2-yl)-1H-indol-5-yl)-1,2,4-oxadiazol-5-yl)acetamide] | < 6.00 | 6.73 |  |  |  |
| Nc1nnc(-c2ccc3[nH]cc(-c4cc(C(F)(F)F)ncn4)c3c2)o1 [Example 95, 5-(3-(6-(trifluoromethyl)-4-pyrimidinyl)-1H-indol-5-yl)-1,3,4-oxadiazol-2-amine] | 6.08 | < 6.00 |  |  |  |
| CC(C)Cn1cc(-c2c[nH]c3ccc(-c4nnc(N)o4)nc23)cn1 [Example 127, 5-(3-(1-(2-methylpropyl)-1H-pyrazol-4-yl)-1H-pyrrolo[3,2-b]pyridin-5-yl)-1,3,4-oxadiazol-2-amine] |  | 6.41 |  |  |  |
| CNc1nnc(-c2ccc3[nH]cc(-c4nccc(-c5ccccc5)n4)c3c2)s1 [Example 131, N-methyl-5-(3-(4-phenyl-2-pyrimidinyl)-1H-indol-5-yl)-1,3,4-thiadiazol-2-amine] | 7.45 | 7.05 |  |  |  |
| CCN(C)c1cnc(-c2c[nH]c3ccc(-c4nnc(N)s4)cc23)cn1 [Example 188, 5-(5-(5-amino-1,3,4-thiadiazol-2-yl)-1H-indol-3-yl)-N-ethyl-N-methyl-2-pyrazinamine] | 5.91 | 6.40 |  |  |  |
| CNc1nnc(-c2ccc3[nH]cc(-c4ccccc4)c3c2)s1 [Example 223, N-methyl-5-(3-phenyl-1H-indol-5-yl)-1,3,4-thiadiazol-2-amine] | 5.71 | 5.94 |  |  |  |
| CC1(C)COCCN1c1nnc(-c2ccc3[nH]cc(-c4cncc(C5CC5)n4)c3c2)o1 [Example 253, 3-(6-cyclopropyl-2-pyrazinyl)-5-(5-(3,3-dimethyl-4-morpholinyl)-1,3,4-oxadiazol-2-yl)-1H-indole] | 6.85 | 7.57 |  |  |  |
| CCOc1nc(-c2c[nH]c3ccc(-c4nnc(NC(C)C)o4)cc23)ncc1F [Example 259, 5-(3-(4-ethoxy-5-fluoro-2-pyrimidinyl)-1H-indol-5-yl)-N-(1-methylethyl)-1,3,4-oxadiazol-2-amine] | 7.43 | 7.52 |  |  |  |
| CC(C)Nc1nnc(-c2ccc3[nH]cc(-c4cccc(C(=O)NC5CC5)n4)c3c2)o1 [Example 294, N-cyclopropyl-6-(5-(5-((1-methylethyl)amino)-1,3,4-oxadiazol-2-yl)-1H-indol-3-yl)-2-pyridinecarboxamide] |  |  |  |  | 6.18 |
| CNC(=O)c1ccc(-c2c[nH]c3ccc(-c4nnc(NC(C)C)o4)cc23)nc1 [Example 295, N-methyl-6-(5-(5-((1-methylethyl)amino)-1,3,4-oxadiazol-2-yl)-1H-indol-3-yl)-3-pyridinecarboxamide] |  |  |  |  | 6.24 |
| CC(C)Nc1nnc(-c2ccc3[nH]cc(-c4cc(C(=O)N(C)C)ccc4F)c3c2)o1 [Example 302, 4-fluoro-N,N-dimethyl-3-(5-(5-((1-methylethyl)amino)-1,3,4-oxadiazol-2-yl)-1H-indol-3-yl)benzamide] |  |  |  |  | 6.54 |
| CC(C)Nc1nnc(-c2ccc3[nH]cc(-c4ccc(C(N)=O)cn4)c3c2)o1 [Example 303, 6-(5-(5-((1-methylethyl)amino)-1,3,4-oxadiazol-2-yl)-1H-indol-3-yl)-3-pyridinecarboxamide] |  |  |  |  | 6.57 |
